How the values were obtained:
Type in all cases: cell-based, human
[1] = tested on: HeLa-control, HeLa-IG20 and HeLa-DENN-SV cells; experiment: Colony formation after etoposide treatment (crystal violet)
Experimental: (§1) FIG. 9: Effects of IG20 and DENN-SV on survival and proliferation of cells treated with etoposide. (A) Cell survival after etoposide treatment. Cells were treated with the indicated doses of etoposide and allowed to grow in culture for 2 weeks and stained with crystal violet. (B) Enumeration of colonies after etoposide treatment. Three different experiments using the indicated doses of etoposide were used to determine the effects of the drug on HeLa-control, HeLa-IG20 and HeLa-DENN-SV cells. P values were <0.05 for all test groups. (C) Etoposide-Induced apoptosis. Cells treated with the indicated doses of etoposide were stained with Hoechst as described in Materials and Methods and evaluated for chromatin condensation under a microscope. P values were <0.05 for all test groups. (D) Cell Division after Etoposide Treatment. Cells were stained with CFDA and then subjected to 5 μM etoposide treatment for 5 days. Cells were then harvested and evaluated by FACS for CFDA staining intensity. Histograms show relative levels of CFDA dye retention. The peak on the left within each histogram represents cells that have undergone cell division, and therefore, partially lost CFDA staining, whereas the peak on the right represents undivided cells that retained maximum CFDA staining.
(§2) Cells were plated (10^5 cells/well) the day before treatment into 6 well plates. Cells were treated with etoposide for 24 hours or vinblastine for 1 hour at indicated concentrations. After treatment, cells were washed 3 times with PBS and then replenished with fresh media and incubated at 37° C. Two weeks later, cells were fixed in ice-cold methanol and stained with crystal violet for visualization.

[2] = tested on: HeLa-control, HeLa-IG20 and HeLa-DENN-SV cells; experiment: Etoposide-induced apoptosis, Hoechst chromatin condensation
Experimental: as §1
Cells were stained in situ with 1 μg/ml of Hoechst 33342 (Sigma, St. Louis, Mo.) in DMEM for 10 minutes at 37° C. […]

[3] = tested on: HeLa-control, HeLa-IG20 and HeLa-DENN-SV cells; experiment: Cell division after etoposide treatment, CFDA staining; conditions: 5 μM etoposide for 5 days
Experimental: as §1
1×10^5 Cells/100 mm^2 plate were stained with 2 μM CFDA (Molecular Probes, Eugene, Oreg.) in situ in 5 ml PBS/100 mm^2 for 10 minutes at 37° C. Cells were then washed 3 times and replenished with new media Cells were harvested 5 days later and analyzed by FACS.

[4] = tested on: HeLa-control, HeLa-IG20 and HeLa-DENN-SV cells; experiment: Cell survival (crystal violet colonies) after vinblastine treatment; conditions: dose of 0.05 ∝M, two weeks
Experimental: (§3) FIG. 8: Effect of IG20 and DENN-SV on Cell Survival and Apoptosis of TransfectedCells after Vinblastine Treatment. (A) Cell survival after Vinblastine treatment. […] (B) Vinblastine-Induced apoptosis. Cells treated with 0.05 μM vinblastine were stained with Hoechst 24 hours after the treatment in order to determine the percentage of cells with condensed chromatin. P values were <0.05 for all test groups.
as §2

[5] = tested on: HeLa-control, HeLa-IG20 and HeLa-DENN-SV cells; experiment: Vinblastine-induced apoptosis, chromatin condensation by Hoechst staining; conditions: 0.05 μM vinblastine, Hoechst 24 hours after treatment
Experimental: as §3, §2
Cells were stained in situ with 1 μg/ml of Hoechst 33342 (Sigma, St. Louis, Mo.) in DMEM for 10 minutes at 37° C. Chromatin condensation was then visualized in situ using a Diaphot 200 inverted microscope with an epifluorescence attachment (Nikon, Inc., Melville, N.Y.). 10 different fields were randomly chosen to determine the average number of cells with condensed chromatin (apoptotic) as compared to live cells.

caspase-3 = experiment: Caspase-3 activation in HeLa IG20 cells; conditions: 5 hours; TRAIL, or TNF-α and cycloheximide
Experimental: FIG. 15: IG20 Cells show increased specific activation of caspases upon TRAIL treatment A) Initiator caspases—Hela IG20 cells and control cells treated with TRAIL for 1H, were stained, with flourochrome-conjugated peptide inhibitors of specific active caspases as indicated, fixed and analyzed by FACS. B) Caspase-8 cleavage—IG20 HeLa cells and control cells were treated with TRAIL for either 1H or 3H, lysed and immunoblotted for the 10 kDa cleaved product of active caspase-8 using the 6B6 monoclonal antibody. […]
Caspase activation—To assess the general activation of caspases, cells were stained with FITC tagged caspase inhibitor Val-Ala-Asp-flouromethyl ketone Promega, Madison, Wis.) for 10 minutes at 37° C., washed and analyzed by FACS for percentage of FITC positive cells. The initiator caspases were analyzed by using carboxyflourescein labeled peptide flouromethlyketone inhibitors (FAM-peptide-FMK) directed against active caspase-8, 9 and 10 (APOLOGIX caspase detection kit, Cell Tech Inc., Minneapolis, Minn.). […] Cells were collected, washed once, resuspended in Perm/wash buffer and analyzed by FACS for PE positive population. […]

HeLa cells = experiment: TNFα-induced mitochondrial depolarization in Annexin V-separated cells
Source text: FIG. 7: Endogenous Expression of IG20 variants and Susceptibility To TNF-Induced Apoptosis. (A) Magnetic Separation of Apoptotic and TNFα-resistant Cells. Apoptotic cells were magnetized and physically separated from TNFα-resistant cells using the Annexin V-conjugated microbeads, as described in Materials and Methods. mRNAs were then isolated from apoptotic and TNFα-resistant cells separately and were used in RT-PCR using IG20-specific primers F-1 and B-1. […] In contrast, marked increase in expression of IG20 with no expression of DENN-SV (the anti-apoptotic variant) is seen in apoptotic cells. (B) TNFα-Induced Mitochondrial Depolarization in apoptotic and TNFα-resistant cells. Cells in (A) were then assessed for mitochondrial depolarization. […] Bars represent averages from three wells for each group. The experiment was repeated at least three times and consistent results were obtained.
Cells were plated in 6-well plates at 1.2×10^5 in growth medium. Twenty four hours later, cells were either untreated or treated with 10 ng/ml TNF-α and 10 μg/ml cyclohexamide (CHX) for 6 hours. To assess the effects of TNFα and CHX treatment, cells were either stained with 100 nM tetramethylrhodamine ethyl ester (TMRE) (Molecular Probes, Eugene, Oreg.) for 10 minutes, harvested by trypsinization, washed once with ice-cold PBS and then subjected to FACS analysis, or were stained with either trypan blue and evaluated for viability using a light microscope, or with 1 μg/ml Hoechst 33342 (Sigma) for 10 minutes and evaluated for chromatin condensation in situ using a Diaphot 200 inverted microscope with an epifluorescence attachment (Nikon, Melville, N.Y.).
To separate cells that were undergoing apoptosis, or resistant to apoptosis upon TNFα treatment, the Annexin V microbeads (Miltenyi Biotec, Inc.) were used according to manufacturer's protocol. Annexin V is a phospholipid-binding protein that recognizes phosphatidylserine on the surface of apoptotic cells. […]

HeLa IG20 cells = experiment: TRAIL or TNF-α/cycloheximide induced apoptosis in HeLa IG20 cells (caspase activation, TMRE, Hoechst); conditions: 5 hours; TRAIL 100 ng/mL, or 10 ng/mL TNF-α and 10 μg/mL cycloheximide
Experimental: FIG. 13: IG20 transfected HeLa cells show increased apoptosis upon TRAIL treatment. HeLa-IG20 and control cells were treated for 5 hours with TRAIL at 100 ng/mL or with 10 ng/mL of TNF-α and 10 μg/mL of Cycloheximide and analyzed for apoptosis. A) Activation of caspases—cells were incubated for 10 minutes with FITC labeled general caspase inhibitor VAD FMK (Val-Ala-Asp-flouromethyl ketone) and analyzed by FACS. Numbers in the histogram indicate percentage of FITC positive cells. B) Mitochondrial Depolarization—Loss of the dye TMRE is indicative of mitochondrial depolarization and the numbers shown in the FACS histograms represent percentage of TMRE negative cells. All the above experiments were done in triplicates and results shown are representative histograms. […] D) Percentage of cells with condensed chromatin was calculated by counting 3 fields containing at least 200 cells each and error bars indicate mean±S.D.
Mitochondrial depolarization and chromatin condensation—2×10^5 HeLa IG20 and Vector control cells were plated into a 12-well culture dish and allowed to grow for 48 hours. […] Cells were assessed for loss of mitochondrial membrane potential by staining with tetramethylrhodamine ethyl ester (100 nm, Molecular Probes, Eugene, Oreg.) for 10 minutes, washed once with ice-cold PBS, collected and subjected to FACS analysis. […]

Q: What does the source list for COc1cc([C@@H]2c3cc4c(cc3[C@@H](O[C@@H]3O[C@@H]5CO[C@@H](C)O[C@H]5[C@H](O)[C@H]3O)[C@H]3COC(=O)[C@H]23)OCO4)cc(OC)c1O [etoposide]?
A: Colonies formed after etoposide treatment ([1]; HeLa-DENN-SV cells, 5 μM etoposide): 125 colonies; Colonies formed after etoposide treatment ([1]; HeLa-DENN-SV cells, 20 μM etoposide): approximately 40 colonies; Growth after etoposide treatment ([1]; HeLa-DENN-SV cells, 30 μM etoposide): able to grow; Colonies formed after etoposide treatment ([1]; HeLa-IG20 cells, 5 μM etoposide, on average): 8 colonies; Colonies formed after etoposide treatment ([1]; HeLa-IG20 cells, 20 μM etoposide): very few or no colonies; Colonies formed after etoposide treatment ([1]; HeLa-control cells, 5 μM etoposide): 39 colonies; Etoposide-induced apoptosis ([2]; HeLa-DENN-SV cells): noticeable resistance to etoposide-induced apoptosis; Etoposide-induced apoptosis ([2]; HeLa-IG20 cells): did not show a marked increase in susceptibility to apoptosis; Cell division as indicated by CFDA staining ([3]; DENN-SV cells): 36%; Cell division as indicated by CFDA staining ([3]; HeLa-IG20 cells): 9%; Cell division as indicated by CFDA staining ([3]; control cells): 24%

Q: For CC[C@]1(O)C[C@@H]2CN(CCc3c([nH]c4ccccc34)[C@@](C(=O)OC)(c3cc4c(cc3OC)N(C)[C@H]3[C@@](O)(C(=O)OC)[C@H](OC(C)=O)[C@]5(CC)C=CCN6CC[C@]43[C@@H]65)C2)C1 [vinblastine], which “Cell survival (colonies) after vinblastine treatment” value (“Cell survival (colonies)” below) ([4]; HeLa-DENN-SV cells) is on record?
A: Its value is “not significantly affected”.

Q: And the “Cell survival (colonies)” value ([4]; HeLa-IG20 cells)?
A: Its value is “only a few HeLa-IG20 colonies detectable”.

Q: And the “Cell survival (colonies)” value ([4]; HeLa-control cells)?
A: Its value is “intermediary response”.

Q: And the “Vinblastine-induced apoptosis as measured by chromatin condensation” value (“Vinblastine-induced apoptosis” below) ([5]; HeLa-DENN-SV cells)?
A: Its value is 21%.

Q: What about the “Vinblastine-induced apoptosis” value ([5]; HeLa-IG20 cells) of the same compound?
A: The value was 70%.

Q: And the “Vinblastine-induced apoptosis” value ([5]; HeLa-controls)?
A: The value was 46%.

Q: With TNFα as the compound, how does the “Relative increase in caspase-3 activation, HeLa IG20 relative to control cells” value (caspase-3) read?
A: The value was “less than two fold increase”.

Q: And the “Apoptosis (cells with depolarized mitochondria)” value (HeLa cells; Annexin V-negative HeLa cells after TNFα and CHX)?
A: The value was 8%.

Q: What about the “Apoptosis (cells with depolarized mitochondria)” value (HeLa cells; Annexin V-positive HeLa cells after TNFα and CHX) of the same compound?
A: Its value is 93%.

Q: And the “Apoptosis (cells with depolarized mitochondria)” value (HeLa cells; unseparated control HeLa cells)?
A: Its value is 35%.

Q: What about the “Increase in cells undergoing apoptosis, HeLa IG20 versus control cells” value (HeLa IG20 cells) of the same compound?
A: Its value is “two-fold increase”.
